Assay results as given in patent US10150760B2, “Compounds for use in preparing heterocyclic triazole agonists of the APJ receptor” (AMGEN INC., priority 2016, dated 2018).

These compounds were tested against human APJ receptor (Homo sapiens (Human), UniProt P35414) (assay: [35S]GTPγS binding assay on membranes from CHO cells stably expressing human APJ receptor). Conditions: read-out: Activity hAPJ SPA EC50 IP.
Assay type: biochemical
In short: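 Membranes from CHO cells stably expressing human APJ incubated with ligand, 0.2 nM [35S]GTPγS and WGA SPA beads in HEPES pH 7.5 with 5 mM MgCl2, 200 mM NaCl, 3 μM GDP, 90 min at RT. Nonspecific binding defined with 100 μM GTPγS; EC50 by non-linear regression.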

Sequence of human APJ receptor (P35414 whole entry): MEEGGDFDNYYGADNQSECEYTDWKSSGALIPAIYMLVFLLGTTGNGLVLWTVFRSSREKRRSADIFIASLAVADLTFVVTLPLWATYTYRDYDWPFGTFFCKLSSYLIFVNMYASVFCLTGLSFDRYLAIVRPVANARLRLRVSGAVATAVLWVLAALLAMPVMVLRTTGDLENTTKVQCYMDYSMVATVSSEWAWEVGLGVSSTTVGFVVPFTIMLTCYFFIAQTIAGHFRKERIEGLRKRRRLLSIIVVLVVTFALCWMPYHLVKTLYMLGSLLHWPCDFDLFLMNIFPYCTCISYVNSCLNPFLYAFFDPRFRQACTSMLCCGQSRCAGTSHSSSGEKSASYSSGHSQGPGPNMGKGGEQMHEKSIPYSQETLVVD

Compared with `COc1ncnc(OC)c1-n1c(NS(=O)(=O)[C@@H](C)[C@@H](OC(C)C)c2ncc(C)cn2)nnc1[C@H]1CCCO1` (single isomer, unassigned) [Example 95.0, (1S,2S)-N-(4-(4,6-dimethoxypyrimidm-5-yl)-5-((S)-tetrahydrofuran-2-yl)-4H-1,2,4-triazol-3-yl)-1-isopropoxy-1-(5-methylpyrimidin-2-yl)propane-2-sulfonamide or (1S,2S)-N-(4-(4,6-dimethoxypyrimidin-5-yl)-5-((R)-tetrahydrofuran-2-yl)-4H-1,2,4-triazol-3-yl)-1-isopropoxy-1-(5-methylpyrimidin-2-yl)propane-2-sulfonamide], `COc1ncnc(OC)c1-n1c(NS(=O)(=O)[C@@H](C)[C@H](C)c2cnc(C)cn2)nnc1[C@H]1CCCO1` (single isomer, unassigned) [Example 104.0, (2S,3R)-N-(4-(4,6-dimethoxypyrimidin-5-yl)-5-((S)-tetrahydrofuran-2-yl)-4H-1,2,4-triazol-3-yl)-3-(5-methylpyrazin-2-yl)butane-2-sulfonamide or (2S,3R)-N-(4-(4,6-dimethoxypyrimidin-5-yl)-5-((R)-tetrahydrofuran-2-yl)-4H-1,2,4-triazol-3-yl)-3-(5-methylpyrazin-2-yl)butane-2-sulfonamide] is 22-fold higher in EC50: 15 nM for the first, 330 nM for the second.

Going from `COc1ncnc(OC)c1-n1c(NS(=O)(=O)[C@@H](C)[C@@H](OC(C)C)c2ncc(C)cn2)nnc1[C@H]1CCCO1` (single isomer, unassigned) [Example 96.0, (1S,2S)-N-(4-(4,6-dimethoxypyrimidm-5-yl)-5-((S)-tetrahydrofuran-2-yl)-4H-1,2,4-triazol-3-yl)-1-isopropoxy-1-(5-methylpyrimidin-2-yl)propane-2-sulfonamide or (1S,2S)-N-(4-(4,6-dimethoxypyrimidin-5-yl)-5-((R)-tetrahydrofuran-2-yl)-4H-1,2,4-triazol-3-yl)-1-isopropoxy-1-(5-methylpyrimidin-2-yl)propane-2-sulfonamide] to `COc1ncnc(OC)c1-n1c(NS(=O)(=O)[C@@H](C)[C@H](C)c2cnc(C)cn2)nnc1[C@H]1CCCO1` (single isomer, unassigned) [Example 105.0, (2S,3R)-N-(4-(4,6-dimethoxypyrimidin-5-yl)-5-((S)-tetrahydrofuran-2-yl)-4H-1,2,4-triazol-3-yl)-3-(5-methylpyrazin-2-yl)butane-2-sulfonamide or (2S,3R)-N-(4-(4,6-dimethoxypyrimidin-5-yl)-5-((R)-tetrahydrofuran-2-yl)-4H-1,2,4-triazol-3-yl)-3-(5-methylpyrazin-2-yl)butane-2-sulfonamide], the EC50 falls from 190 nM to 88 nM (2.2-fold). The second is the more potent here.

First: COc1cccc(OC)c1-n1c(NS(=O)(=O)[C@@H](C)[C@@H](OC(C)C)c2ncc(C)cn2)nnc1[C@H]1CCCO1 (single isomer, unassigned) [Example 98.0, (1S,2S)-N-(4-(2,6-dimethoxyphenyl)-5-((S)-tetrahydrofuran-2-yl)-4H-1,2,4-triazol-3-yl)-1-isopropoxy-1-(5-methylpyrimidin-2-yl)propane-2-sulfonamide or (1S,2S)-N-(4-(2,6-dimethoxyphenyl)-5-((R)-tetrahydrofuran-2-yl)-4H-1,2,4-triazol-3-yl)-1-isopropoxy-1-(5-methylpyrimidin-2-yl)propane-2-sulfonamide]
Second: COc1cccc(OC)c1-n1c(NS(=O)(=O)[C@@H](C)[C@@H](OC(C)C)c2ncc(C)cn2)nnc1[C@H]1CCOC1 (single isomer, unassigned) [Example 99.0, (1S,2S)-N-(4-(2,6-dimethoxyphenyl)-5-((R)-tetrahydrofuran-3-yl)-4H-1,2,4-triazol-3-yl)-1-isopropoxy-1-(5-methylpyrimidin-2-yl)propane-2-sulfonamide or (1S,2S)-N-(4-(2,6-dimethoxyphenyl)-5-((S)-tetrahydrofuran-3-yl)-4H-1,2,4-triazol-3-yl)-1-isopropoxy-1-(5-methylpyrimidin-2-yl)propane-2-sulfonamide]
The EC50 of the first is 3.2-fold lower: 0.78 nM for the first, 2.5 nM for the second. The first is the more potent here.

`COc1cccc(OC)c1-n1c(NS(=O)(=O)[C@@H](C)[C@@H](OC(C)C)c2ncc(C)cn2)nnc1[C@H]1CCOC1` (single isomer, unassigned) [Example 100.0, (1S,2S)-N-(4-(2,6-dimethoxyphenyl)-5-((R)-tetrahydrofuran-3-yl)-4H-1,2,4-triazol-3-yl)-1-isopropoxy-1-(5-methylpyrimidin-2-yl)propane-2-sulfonamide or (1S,2S)-N-(4-(2,6-dimethoxyphenyl)-5-((S)-tetrahydrofuran-3-yl)-4H-1,2,4-triazol-3-yl)-1-isopropoxy-1-(5-methylpyrimidin-2-yl)propane-2-sulfonamide] and `COc1cccc(OC)c1-n1c(NS(=O)(=O)[C@@H](C)[C@H](OC)c2ncc(Cl)cn2)nnc1[C@H]1CCC(C)(C)O1` (single isomer, unassigned) [Example 108.0, (1R,2S)-1-(5-chloropyrimidin-2-yl)-N-(4-(2,6-dimethoxyphenyl)-5-((S)-5,5-dimethyltetrahydrofuran-2-yl)-4H-1,2,4-triazol-3-yl)-1-methoxypropane-2-sulfonamide or (1R,2S)-1-(5-chloropyrimidin-2-yl)-N-(4-(2,6-dimethoxyphenyl)-5-((R)-5,5-dimethyltetrahydrofuran-2-yl)-4H-1,2,4-triazol-3-yl)-1-methoxypropane-2-sulfonamide] are within 1.5-fold of each other in EC50: 24 nM for the first, 25 nM for the second.

Compared with `COc1ncnc(OC)c1-n1c(NS(=O)(=O)[C@@H](C)[C@H](C)c2ncc(Cl)cn2)nnc1[C@H]1CCCOC1` (single isomer, unassigned) [Example 101.0, (2S,3R)-3-(5-chloropyrimidin-2-yl)-N-(4-(4,6-dimethoxypyrimidin-5-yl)-5-((S)-tetrahydro-2H-pyran-3-yl)-4H-1,2,4-triazol-3-yl)butane-2-sulfonamide or (2S,3R)-3-(5-chloropyrimidin-2-yl)-N-(4-(4,6-dimethoxypyrimidin-5-yl)-5-((R)-tetrahydro-2H-pyran-3-yl)-4H-1,2,4-triazol-3-yl)butane-2-sulfonamide], `COc1cccc(OC)c1-n1c(NS(=O)(=O)[C@@H](C)[C@H](OC)c2ncc(Cl)cn2)nnc1[C@H]1CCC(C)(C)O1` (single isomer, unassigned) [Example 109.0, (1R,2S)-1-(5-chloropyrimidin-2-yl)-N-(4-(2,6-dimethoxyphenyl)-5-((S)-5,5-dimethyltetrahydrofuran-2-yl)-4H-1,2,4-triazol-3-yl)-1-methoxypropane-2-sulfonamide or (1R,2S)-1-(5-chloropyrimidin-2-yl)-N-(4-(2,6-dimethoxyphenyl)-5-((R)-5,5-dimethyltetrahydrofuran-2-yl)-4H-1,2,4-triazol-3-yl)-1-methoxypropane-2-sulfonamide] is 1600-fold lower in EC50: 260 nM for the first, 0.16 nM for the second. The second is the more potent here.

Going from `COc1cccc(OC)c1-n1c(NS(=O)(=O)[C@@H](C)[C@H](C)c2cnc(C)cn2)nnc1[C@H]1CCCCO1` (single isomer, unassigned) [Example 106.0, (2S,3R)-N-(4-(2,6-dimethoxyphenyl)-5-((S)-tetrahydro-2H-pyran-2-yl)-4H-1,2,4-triazol-3-yl)-3-(5-methylpyrazin-2-yl)butane-2-sulfonamide or (2S,3R)-N-(4-(2,6-dimethoxyphenyl)-5-((R)-tetrahydro-2H-pyran-2-yl)-4H-1,2,4-triazol-3-yl)-3-(5-methylpyrazin-2-yl)butane-2-sulfonamide] to `CO[C@H](c1ncc(Cl)cn1)[C@H](C)S(=O)(=O)Nc1nnc([C@H]2CCCCO2)n1C1(C)CC1` (single isomer, unassigned) [Example 113.0, (1R,2S)-1-(5-chloropyrimidin-2-yl)-1-methoxy-N-(4-(1-methylcyclopropyl)-5-((S)-tetrahydro-2H-pyran-2-yl)-4H-1,2,4-triazol-3-yl)propane-2-sulfonamide or (1R,2S)-1-(5-chloropyrimidin-2-yl)-1-methoxy-N-(4-(1-methylcyclopropyl)-5-((R)-tetrahydro-2H-pyran-2-yl)-4H-1,2,4-triazol-3-yl)propane-2-sulfonamide], the EC50 rises from 53 nM to 260 nM (4.9-fold).

Compared with `COc1cccc(OC)c1-n1c(NS(=O)(=O)[C@@H](C)[C@H](C)c2cnc(C)cn2)nnc1[C@H]1CCCCO1` (single isomer, unassigned) [Example 107.0, (2S,3R)-N-(4-(2,6-dimethoxyphenyl)-5-((S)-tetrahydro-2H-pyran-2-yl)-4H-1,2,4-triazol-3-yl)-3-(5-methylpyrazin-2-yl)butane-2-sulfonamide or (2S,3R)-N-(4-(2,6-dimethoxyphenyl)-5-((R)-tetrahydro-2H-pyran-2-yl)-4H-1,2,4-triazol-3-yl)-3-(5-methylpyrazin-2-yl)butane-2-sulfonamide], `CO[C@H](c1ncc(Cl)cn1)[C@H](C)S(=O)(=O)Nc1nnc([C@H]2CCCO2)n1C1(C)CC1` (single isomer, unassigned) [Example 110.0, (1R,2S)-1-(5-chloropyrimidin-2-yl)-1-methoxy-N-(4-(1-methylcyclopropyl)-5-((S)-tetrahydrofuran-2-yl)-4H-1,2,4-triazol-3-yl)propane-2-sulfonamide or (1R,2S)-1-(5-chloropyrimidin-2-yl)-1-methoxy-N-(4-(1-methylcyclopropyl)-5-((R)-tetrahydrofuran-2-yl)-4H-1,2,4-triazol-3-yl)propane-2-sulfonamide] is 5.9-fold higher in EC50: 5.1 nM for the first, 30 nM for the second.

Compound `CO[C@H](c1ncc(Cl)cn1)[C@H](C)S(=O)(=O)Nc1nnc([C@H]2CCCO2)n1C1(C)CC1` (single isomer, unassigned) [Example 111.0, (1R,2S)-1-(5-chloropyrimidin-2-yl)-1-methoxy-N-(4-(1-methylcyclopropyl)-5-((S)-tetrahydrofuran-2-yl)-4H-1,2,4-triazol-3-yl)propane-2-sulfonamide or (1R,2S)-1-(5-chloropyrimidin-2-yl)-1-methoxy-N-(4-(1-methylcyclopropyl)-5-((R)-tetrahydrofuran-2-yl)-4H-1,2,4-triazol-3-yl)propane-2-sulfonamide] has an EC50 of 240 nM.
